For data set [1], the target named is Histone deacetylase 1 (Homo sapiens, UniProt Q13547). Kind of data set: Inhibition of human HDAC1 expressed in baculovirus expression system in Sf9 cells using RHKKAc (379 to 382 residues) fluorogenic peptide as substrate and measured after 2 hrs by fluorescence based analysis.
In data set [2] the target is T1, Histone deacetylase 8 (Homo sapiens, UniProt Q9BY41).
T1 sequence (Q9BY41 whole entry): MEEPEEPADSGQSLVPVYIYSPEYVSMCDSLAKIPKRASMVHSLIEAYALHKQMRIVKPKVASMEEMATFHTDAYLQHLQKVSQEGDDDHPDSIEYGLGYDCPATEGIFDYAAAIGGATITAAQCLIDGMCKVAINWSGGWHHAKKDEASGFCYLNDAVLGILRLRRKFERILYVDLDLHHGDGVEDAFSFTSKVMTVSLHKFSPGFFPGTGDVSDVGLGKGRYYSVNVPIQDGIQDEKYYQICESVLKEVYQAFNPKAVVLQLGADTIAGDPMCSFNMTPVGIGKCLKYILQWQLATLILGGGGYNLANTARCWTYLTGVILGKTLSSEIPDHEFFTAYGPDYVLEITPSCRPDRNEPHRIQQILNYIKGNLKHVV
As to the kind of experiment: Inhibition of human HDAC8 expressed in baculovirus expression system in Sf9 cells using RHKAcKAc (379 to 382 residues) fluorogenic peptide as substrate and measured after 2 hrs by fluorescence based analysis.

The target of data set [3] is T2, Protein deacetylase HDAC6 (Homo sapiens, UniProt Q9UBN7).
T2 sequence (Q9UBN7 whole entry): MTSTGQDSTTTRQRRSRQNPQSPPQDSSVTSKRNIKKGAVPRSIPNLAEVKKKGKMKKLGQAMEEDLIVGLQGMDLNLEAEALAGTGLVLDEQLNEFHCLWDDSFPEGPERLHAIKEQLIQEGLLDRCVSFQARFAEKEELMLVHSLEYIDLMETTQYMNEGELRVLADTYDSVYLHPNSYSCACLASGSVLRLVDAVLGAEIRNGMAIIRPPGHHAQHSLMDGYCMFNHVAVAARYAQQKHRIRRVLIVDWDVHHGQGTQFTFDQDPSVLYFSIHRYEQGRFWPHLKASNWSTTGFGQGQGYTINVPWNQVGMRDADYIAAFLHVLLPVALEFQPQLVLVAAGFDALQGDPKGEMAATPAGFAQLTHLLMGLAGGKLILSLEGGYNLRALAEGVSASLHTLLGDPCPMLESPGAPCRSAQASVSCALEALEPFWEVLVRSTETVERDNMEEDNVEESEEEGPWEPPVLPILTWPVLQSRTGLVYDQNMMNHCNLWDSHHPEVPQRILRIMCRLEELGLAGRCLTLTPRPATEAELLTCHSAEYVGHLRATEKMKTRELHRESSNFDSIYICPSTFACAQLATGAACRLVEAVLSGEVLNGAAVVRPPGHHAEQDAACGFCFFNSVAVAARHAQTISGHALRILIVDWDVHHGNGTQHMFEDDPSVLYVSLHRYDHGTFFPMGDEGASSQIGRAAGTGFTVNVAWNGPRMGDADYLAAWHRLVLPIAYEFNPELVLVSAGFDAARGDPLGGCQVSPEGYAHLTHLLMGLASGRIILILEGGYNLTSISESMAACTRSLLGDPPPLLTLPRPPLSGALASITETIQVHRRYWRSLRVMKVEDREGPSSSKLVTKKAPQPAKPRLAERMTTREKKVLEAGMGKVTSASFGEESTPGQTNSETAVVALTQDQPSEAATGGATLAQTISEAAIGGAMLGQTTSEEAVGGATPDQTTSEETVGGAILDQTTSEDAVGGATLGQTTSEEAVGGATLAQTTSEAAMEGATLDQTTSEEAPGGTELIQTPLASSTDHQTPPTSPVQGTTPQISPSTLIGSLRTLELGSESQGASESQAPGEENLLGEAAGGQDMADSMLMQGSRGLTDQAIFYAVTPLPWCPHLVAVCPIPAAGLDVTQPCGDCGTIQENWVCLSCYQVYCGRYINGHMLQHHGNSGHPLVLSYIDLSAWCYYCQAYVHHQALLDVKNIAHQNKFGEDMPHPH
As to the kind of experiment: Inhibition of human HDAC6 expressed in baculovirus expression system in Sf9 cells using RHKKAc (379 to 382 residues) fluorogenic peptide as substrate and measured after 2 hrs by fluorescence based analysis.

In data set [4] the test system is NIH3T3. As to the kind of experiment: Antiproliferative activity against mouse NIH3T3 cells assessed as reduction in cell viability by measuring optimal working concentration incubated for 3 days by CCK-8 assay relative to control. In kind it is functional. The note with it: time 3 day. For orientation: Tetrazolium dyes change colour on reduction, which living cells bring about.

The test system of data set [5] is NIH3T3. As to the kind of experiment: Antiproliferative activity against mouse NIH3T3 cells assessed as reduction in cell viability incubated for 3 days by CCK-8 assay. Particulars: NIH3T3, 72 h. In kind it is functional, cell-based.
Data set [6] is described as follows: Antiproliferative activity against human Pulmonary fibroblast cells assessed as reduction in cell viability by measuring optimal working concentration incubated for 3 days by CCK-8 assay. The class given is functional. The note with it: time 3 day.
Data set [7] in a line: Antiproliferative activity against human Pulmonary fibroblast cells assessed as reduction in cell viability incubated for 3 days by CCK-8 assay. The class given is functional, cell-based. Particulars: 72 h.
A short description of data set [8]: in vitro. Particulars: human.
The nature of data set [9]: in vitro. The note with it: human. The source holds these as a separate data set.
Data set [10] in a line: Metabolic stability in human liver microsomes assessed as parent compound remaining at 200 uM preincubated for 5 mins followed by NADPH and measured at 60 mins by LC-MS/MS analysis.
Data set [11] is described as follows: in vitro. The note with it: human, Caco-2.
Description: Apparent permeability across apical to basolateral side in human Caco-2 cells at 10 uM preincubated for 10mins followed by compound addition and measured after 90 mins by LC-MS/MS analysis

Some results are limits rather than exact numbers.

Sequence of Histone deacetylase 1 (Q13547 whole entry, the tested form may be a part): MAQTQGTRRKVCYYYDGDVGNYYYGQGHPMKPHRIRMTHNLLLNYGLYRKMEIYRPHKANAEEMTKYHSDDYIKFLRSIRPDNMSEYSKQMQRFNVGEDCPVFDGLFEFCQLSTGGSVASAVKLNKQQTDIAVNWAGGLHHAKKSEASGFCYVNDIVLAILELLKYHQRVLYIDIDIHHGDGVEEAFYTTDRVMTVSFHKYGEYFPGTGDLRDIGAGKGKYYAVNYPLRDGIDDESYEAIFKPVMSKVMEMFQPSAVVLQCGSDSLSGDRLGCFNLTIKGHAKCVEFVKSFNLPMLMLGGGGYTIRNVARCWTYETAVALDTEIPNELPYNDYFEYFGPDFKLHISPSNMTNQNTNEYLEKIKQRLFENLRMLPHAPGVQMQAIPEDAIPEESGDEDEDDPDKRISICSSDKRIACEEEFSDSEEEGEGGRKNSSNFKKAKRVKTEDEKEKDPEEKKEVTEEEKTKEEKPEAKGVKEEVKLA

As a reminder, the IC50 is the concentration needed to halve the response being measured. On to `Cn1c(CCC(=O)NO)nc2ccccc2c1=O`, for which the half-inhibitory concentration (IC50) is greater than 30 µM in data set [1], 10.4 µM in [2] and 22 µM in data set [3].

For `O=C(CCn1c(=O)n(Cc2ccccc2)c(=O)c2ccc(Cl)cc21)NO`, the MEC in [4] was 2.9 µM. In addition, the values for the IC50 in data set [1], in [5] and in data set [3] were greater than 10 µM, 9.12 µM and 0.047 µM, respectively.

On to `N#Cc1ccc2c(=O)n(CCc3ccccc3)c(=O)n(Cc3ccc(C(=O)NO)cc3)c2c1`, for which the MEC in [4] was 4.5 µM. In addition, the IC50 in [2] is 0.13 µM; in data set [5], 735 µM.

Regarding `O=C(NO)c1ccc(Cn2c(=O)n(CCc3ccccc3)c(=O)c3ccccc32)cc1`, the MEC in [4] amounted to 2.88 µM. Further, the IC50 is greater than 10 µM in [1] and 5.1 µM in [5].

For the compound `O=C(NO)c1ccc(Cn2c(=O)[nH]c(=O)c3c(Cl)cccc32)cc1`, the MEC in data set [4] came to 12 µM. Further, the IC50 in [1] was 3.32 µM; in data set [2], 0.281 µM; in data set [5], 23.3 µM; in data set [3], 0.013 µM.

In the case of `O=C(NO)c1ccc(Cn2c(=O)[nH]c(=O)c3ccc(C(F)(F)F)cc32)cc1`, the MEC in data set [4] is 4.72 µM. For the same compound, the concentration for half-maximal inhibition (IC50) in data set [1] was found to be 5.18 µM; in data set [2] it was 0.302 µM; in data set [5], 16 µM; in [3] it was 0.058 µM.

Consider `O=C(NO)c1cccc(Cn2c(=O)[nH]c(=O)c3cccc(Cl)c32)c1`, for which, in data set [4], the MEC turned out to be 10 µM. Besides, the concentration for half-maximal inhibition (IC50) is greater than 30 µM in data set [1], 0.966 µM in data set [2], greater than 40 µM in [5] and 5.95 µM in data set [3].

Consider `O=C(NO)c1ccc(Cn2c(=O)n(CCc3ccccc3)c(=O)c3cc(Cl)ccc32)cc1`, for which the MEC in [4] is 0.81 µM. Further, in [5], the IC50 is 3.79 µM.

As for `O=C(NO)c1ccc(-c2nc3ccccc3c(=O)[nH]2)cc1`, the MEC in data set [4] stood at 10 µM; in data set [6], 5 µM. For the same compound, the IC50 in data set [1] is greater than 30 µM; in [2], 1.62 µM; in data set [5] it was greater than 40 µM; in data set [7], greater than 40 µM; in data set [3], 0.317 µM.

As for `COc1ccccc1CCn1c(=O)c2ccccc2n(Cc2ccc(C(=O)NO)cc2)c1=O`, the IC50 in data set [5] was determined as 9.55 µM.

With `O=C(CCn1c(=O)n(CCc2ccccc2)c(=O)c2ccccc21)NO`, the MEC in data set [4] was 1.14 µM. For the same compound, the half-maximal inhibitory concentration (IC50) is greater than 10 µM in [1], 0.454 µM in data set [2], 7.14 µM in data set [5] and 0.798 µM in data set [3].

As for `O=C(NO)c1ccc(Cn2c(=O)[nH]c(=O)c3cc(Br)ccc32)cc1`, the MEC in data set [4] is 6.05 µM. Further, the IC50 in [1] worked out at 4.28 µM; in [2], 0.371 µM; in data set [5], 757 µM; in [3], 0.018 µM.

In the case of `O=C(NO)c1ccc(Cn2c(=O)n(CCc3ccccc3)c(=O)c3ccc(C(F)(F)F)cc32)cc1`, the MEC in data set [4] worked out at 1.24 µM. The IC50 in data set [5] turned out to be 4.23 µM.

Take `O=C(CS)Nc1ccc(Cn2c(=O)[nH]c(=O)c3cccc(Cl)c32)cc1`: in data set [3], it took 0.0053 µM to reach half-maximal inhibition (IC50).

In the case of `O=C(NO)c1ccc(Cn2c(=O)n(CCc3ccccc3O)c(=O)c3ccccc32)cc1`, the MEC in data set [4] amounted to 4.94 µM. Further, the half-maximal inhibitory concentration (IC50) in [5] worked out at 9.95 µM.

`O=C(NO)c1ccc(Cn2c(=O)n(CCc3ccccc3)c(=O)c3ccccc32)c(F)c1`: the MEC in data set [4] turned out to be 0.73 µM. Further, the IC50 in data set [1] is 14.5 µM; in data set [2] it was 0.255 µM; in data set [5] it was 10.1 µM; in [3] it was 0.108 µM.

By half-life is commonly meant how long it takes for the measured level to halve. Read a low half-life as fast loss. In general, CLint scaled refers to the capacity of the preparation to metabolise the compound, expressed as a volume cleared per time. Low values mean greater metabolic stability, high ones faster metabolism. Broadly, the share remaining is what is left of the initial amount, in per cent. `Cc1nc2ccc(/C=C/CC(=O)NO)cc2c(=O)n1-c1ccccc1`: the MEC in [4] and in data set [6] was 10 µM in each case. Further, the half-maximal inhibitory concentration (IC50) is 17.3 µM in [1]; 3.73 µM in [2]; greater than 40 µM in data set [5]; greater than 40 µM in data set [7]; 0.168 µM in data set [3]. In [8] (microsomes), the half-life at 1 h, 200 µM was greater than 3.11 h. In [9] (microsomes), this compound yielded an intrinsic clearance (CLint scaled) at 1 h, 200 µM of less than 0.366 L/h/kg. Moreover, the amount remaining at 1 h, 200 µM in data set [10] (microsomes) came out at 84.3%.

What is called Papp A→B is how fast a substance crosses the layer from the apical side. A lower Papp A→B goes with poor permeation. `O=C(NO)c1ccc(/C=C/c2nc3ccccc3c(=O)[nH]2)cc1`: the MEC was found to be 2.27 µM in data set [4] and 10 µM in data set [6]. The concentration for half-maximal inhibition (IC50) in [1] is 16.2 µM; in data set [2], 0.325 µM; in data set [5], 5.02 µM; in data set [7], greater than 40 µM; in [3], 0.028 µM. Besides, the half-life at 1 h, 200 µM in data set [8] (liver microsomes) is 1.26 h. In data set [11], this compound gave a Papp A→B at 1.5 h, 10 µM of 3 nm/s. In addition, the intrinsic clearance (CLint scaled) at 1 h, 200 µM in [9] (liver microsomes) was 0.63 L/h/kg. Further, in data set [10] (liver microsomes), the share remaining at 1 h, 200 µM came out at 58.1%.

With `CCc1nc2ccc(/C=C/CC(=O)NO)cc2c(=O)n1-c1ccccc1`, in data set [4], the MEC came out at 10 µM. In addition, the IC50 in data set [1] is 15.9 µM; in data set [2], 3.69 µM; in data set [5], greater than 40 µM; in data set [3] it was 0.285 µM.

For the compound `O=C(NO)c1ccc(Cn2c(=O)[nH]c(=O)c3ccc(F)cc32)cc1`, the MEC in data set [4] is 2.7 µM. Besides, the half-maximal inhibitory concentration (IC50) in [1] amounted to 0.423 µM; in data set [2], 0.154 µM; in [5], 15.3 µM; in data set [3] it was 0.0016 µM.

The compound `COc1ccc2c(c1)[C@]13CCCC[C@@H]1[C@H](C2)N(C)CC3` [DEXTROMETHORPHAN] displayed a half-life at 1 h, 200 µM in [8] (liver microsomes) of 0.582 h. Moreover, in data set [9] (liver microsomes), the intrinsic metabolic clearance (CLint scaled) at 1 h, 200 µM was 0.858 L/h/kg. In addition, the amount remaining at 1 h, 200 µM in data set [10] (liver microsomes) is 30.4%.

As for `O=C(NO)c1ccc(Cn2c(=O)[nH]c(=O)c3cc(F)ccc32)cc1`, the IC50 in data set [1] was 1.27 µM; in data set [2] it was 0.222 µM; in data set [5] it was 4.76 µM; in data set [3] it was 0.006 µM.

On to `CCc1nc2c(Cc3ccc(C(=O)NO)cc3)cccc2c(=O)n1CCc1ccccc1`, for which the MEC in [4] is 0.4 µM. In addition, the IC50 in [5] was found to be 338 µM.

The record behind these values is ChEMBL document CHEMBL5346972, “Discovery of HDAC6, HDAC8, and 6/8 Inhibitors and Development of Cell-Based Drug Screening Models for the Treatment of TGF-β-Induced Idiopathic Pulmonary Fibrosis” (J Med Chem, 2023).
